Experimental data reported in patent publication US6592845B2, “Estrogens for treating ALS” (Parker Hughes Institute, priority 1999, dated 2003).

Tested on: Heterozygous transgenic mice carrying the human SOD-1 (G93A)
Assay: Murine model of familial ALS (FALS): monitoring for limb paralysis and death, life-table analysis
Format: in vivo
Settings: 16 mg/kg twice a day, everyday except weekends
Description: (§1) Heterozygous transgenic mice carrying the human SOD-1 (G93A) were obtained from Jackson Laboratory (Bar Harbor, Me., USA). These mice were monitored everyday for limbic paralysis and death. Onset of FALS was defined as the first day upon which limbic paralysis was observed. Life-table analysis was performed using Statview, Abacus Concepts, Inc. (Berkeley, Calif.).
There are currently several transgenic animal models of ALS (Borchelt et al., 1998, Transgenic mouse models of Alzheimer's disease and amyotrophic lateral sclerosis, Brain Pathology, 8: 735-757). The G93A HuSOD1 is a well established animal model of familial ALS which has been described previously in detail (Dal Canto M C, Gurney Me., 1994, The development of central nervous system pathology in a murine transgenic model of human amyotrophic lateral sclerosis. Am J. Pathol 145: 1-9; Gurney et al., 1994, Motor neuron degeneration in mice that express a human Cu,Zn superoxide dismutase mutation, Science 264:1772-1775). Levels of SOD1 activity are elevated to about five times above that of endogenous SOD 1 in these mice. In this model, the mice develop hind limb weakness, a coarse coat, poor grooming, and reduced stride length at about 3 months of age. By five months of age, a majority of the mice are moribund.
as §1, with “USA). The mice were treated either with vehicle or genistein at 16 mg/kg twice a day, everyday, except on weekends. The” for “USA). These”, “for limb” for “for limbic”, “Calif.). […]” for “Calif.).”
The ability of 4-(4′-hydroxylphenyl)-amino-6,7-dimethoxyquinazoline (P131) and 2,4,4′-trihydroxy deoxybenzoin (DDE-17) to protect against neural degeneration in familial ALS was evaluated using the methods described above for Example 2. […]

[1] = male FALS mice, compared with vehicle-treated males

O=c1c(-c2ccc(O)cc2)coc2cc(O)cc(O)c12 [Genistein, genistein]
disease onset (first day upon which limbic paralysis was observed) (female FALS mice, compared with untreated (vehicle) females): did not exhibit a delay
disease onset (first day upon which limbic paralysis was observed) [1]: delayed
mortality [1]: delayed
